Data as given in PMC12916490 (Molecular Psychiatry, 2025).

Each molecule was assayed against T1, hTAAR1 (Homo sapiens, UniProt Q96RJ0) (assay: Functional activity at human TAAR1 (cAMP)). Settings: not given.
T1 construct: expressed in transfected cells
T1 sequence (Q96RJ0 1-339): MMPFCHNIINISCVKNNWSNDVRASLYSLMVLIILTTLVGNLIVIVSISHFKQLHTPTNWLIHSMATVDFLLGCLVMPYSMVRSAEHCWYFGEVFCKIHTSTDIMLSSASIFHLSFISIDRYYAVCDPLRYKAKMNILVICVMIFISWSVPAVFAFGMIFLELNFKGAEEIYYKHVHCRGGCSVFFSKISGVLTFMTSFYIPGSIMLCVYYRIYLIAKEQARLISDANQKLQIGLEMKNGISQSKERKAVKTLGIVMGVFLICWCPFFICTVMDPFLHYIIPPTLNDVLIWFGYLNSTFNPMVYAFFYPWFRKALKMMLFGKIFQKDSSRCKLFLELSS
Type: cell-based
Procedure: Activity at the human trace amine-associated receptor 1 (hTAAR1) was determined as previously described. More information can be found in the Supplementary information.
Then, the obtained RA values were used to calculate the bias factor (β) for each pathway combination. […]
pathway 1 over pathway 2. Brown-Forsythe and Welch ANOVA analyses were applied to estimate the statistical probability that β is different from zero.
3.3 Functional activity at the human TAAR1 […]
receptor 1 (hTAAR1) were generated by transfection with Lipofectamine 2000 (Invitrogen, Zug, Switzerland). The cells were harvested and pelleted by centrifugation at 900 rpm for 3 min at room temperature. The supernatant was then removed, and the cell pellet was resuspended in fresh culture medium. The cells were plated into 96 -well plates (100 μL, containing 80,000 cells per well) and incubated […]
The culture medium was removed, and the cells were washed once with 50 μL phosphate buffered saline without Ca2+ and Mg2+. Thereafter, 90 μL of Krebs -Ringer bicarbonate buffer (Sigma- […]
to 10 μM cAMP) was included on each plate. In addition, a reference plate containing RO5256390, β-phenylethylamine, and p-tyramine was included in each experiment. Test compound solution, β-phenylethylamine (as maximal response), or basal control were added at a volume of 30 μL, and the cells […]
Afterwards, the cells were lysed with 50 μL of detection mix solution […]
under heavy shaking. Fluorescence was then measured.
3.4 Plasma and brain tissue analysis
3.4.1 Analytical standards […]
to spike blank plasma or tissue homogenate at calibration standards of 1, 2.5, 5, 10, 25, 50, 100, 250, and […]
Extraction was performed by protein precipitation with 150 µL of acetonitrile added to 50 µL plasma in a 2-mL centrifuge tube. The samples were then vortexed for 10 s and shaken for 3 min at […]

Row | Compound | EC50
1 | CCCCc1cc(OC)c(CC(C)N)cc1OC (stereo not shown) [DOBU, 4-butyl-2,5-dimethoxyamphetamine] | 10.4 µM
2 | COc1cc(CC(C)N)c(OC)cc1C (stereo not shown) [DOM, 4-methyl-2,5-dimethoxyamphetamine] | > 30 µM

Same assay, conditions: mean (95% CI); β-phenylethylamine as maximal response; read-out: hTAAR1 Activation efficacy Emax

Row | Compound | Emax
3 | CCCCc1cc(OC)c(CC(C)N)cc1OC (stereo not shown) [DOBU, 4-butyl-2,5-dimethoxyamphetamine] | 98%

What follows are molecules tested on C57BL/6 J mice (assay: Head-twitch response (HTR) dose-response in mice, 30-min session). Settings: 0.03 mg/kg s.c.; mean ± SEM.
Type: in vivo, mouse
Procedure: (§1) Behavioral studies were conducted as previously described with minor modifications. Male C57BL/6 J mice (The Jackson Laboratory #000664, 24 mice/drug) were purchased at 8 weeks old, group housed for acclimation (3–5 per cage for 1–2 weeks) under a 12:12 light:dark cycle (07:00 local time = lights on), with ad libitum access to food and water at the NIDA IRP facilities in Baltimore, MD, USA. All experiments were approved by the NIDA IRP Animal Care and Use Committee. After acclimation to the vivarium facilities, each mouse was briefly anesthetized with isoflurane and a temperature transponder (14 × 2 mm, model IPTT-300, Bio Medic Data Systems, Inc., Seaford, DE, USA) was implanted subcutaneously (s.c.) on the back, posterior to the shoulder blades. After the implant, mice were single housed and allowed one week recovery prior to the start of experiments. […] Drugs were randomly assigned and administered s.c. as the weight of the form used at an injection volume of 0.01 mL/g body weight.
(§2) During experimental testing, mice were tested once every 1–2 weeks to avoid potential tolerance to behavioral effects of the test drugs and were tested 2–3 times in total per drug. Each test session began with a brief 5 min acclimation period to the testing arenas, followed by recording baseline body temperature using a handheld wand that was sensitive to the signals emitted from the s.c. transponder. After this, mice were injected s.c. with appropriate doses of test drug and returned to the chambers for a 30-min test session. During the dose-response sessions, locomotor activity was continuously recorded using open field chambers with photobeam arrays (Coulbourn Instruments, Holliston, MA, USA) that were modified with cylindrical inserts and custom floor panels that also allowed video recordings of each mouse to later quantify HTR activity (GoPro Hero 7 camera; 960p resolution at 120 frames per second). Videos for each mouse were analyzed post session using commercially available software used to quantify HTR as previously described.
(§3) Data analysis was performed with Prism software (version 10.1.2, GraphPad Software, Boston, MA, USA). The IC50 values from the radioligand binding assays were determined by nonlinear regression, using three independent concentration-response curves fitted to a one-site model. The Cheng-Prusoff equation was used to calculate Kᵢ values for the competing ligands. EC50 values were determined by applying nonlinear regression to concentration-response curves. Bias factors (β) were calculated based on the relative intrinsic activity approach. More detailed information can be found in the Supplementary information. Mean values for total number of HTR, change in body temperature from pre to post session (Δ°C), and total distance traveled (cm) for each drug dose were compared (p < 0.05) via Welch’s ANOVA with Dunnett’s T3 post test, comparing all doses to respective vehicle controls (0 mg/kg). Welch’s ANOVA with Dunnett’s T3 post test was also used to compare drug concentrations, but the data were compared to DOM in this case. Dose–response relationships for HTR and locomotor activities were plotted using bell-shaped curve fits, while temperature change data were plotted using four-parameter non-linear regression curve fits. The ascending phase of the HTR curve for each drug was used to determine ED50 potency values from four parameter non-linear regression fits. For combined DOM and DOAM administration, the plasma, brain tissue, and brain dialysate drug concentrations were compared using paired t-tests (p < 0.05). Ratios were compared using Holm-Sidak’s post hoc test following a repeated-measures one-way ANOVA (F (1.709, 6.835) = 70.80; p < 0.0001).
(§4) Locomotor activity and body temperature were also assessed to monitor other pharmacological effects of the drugs that may impact the HTR. […]

Row | Compound | HTR (count/30 min)
4 | CCCCc1cc(OC)c(CC(C)N)cc1OC (stereo not shown) [DOBU, 4-butyl-2,5-dimethoxyamphetamine] | 6.0 ± 0.9 count
5 | COc1cc(CC(C)N)c(OC)cc1C (stereo not shown) [DOM, 4-methyl-2,5-dimethoxyamphetamine] | 10.2 ± 1.9 count

Same assay, conditions: 0.1 mg/kg s.c.; mean ± SEM

Row | Compound | HTR (count/30 min)
6 | CCCCc1cc(OC)c(CC(C)N)cc1OC (stereo not shown) [DOBU, 4-butyl-2,5-dimethoxyamphetamine] | 9.0 ± 1.7 count
7 | COc1cc(CC(C)N)c(OC)cc1C (stereo not shown) [DOM, 4-methyl-2,5-dimethoxyamphetamine] | 23.4 ± 2.1 count

Same assay, conditions: 0.3 mg/kg s.c.; mean ± SEM

Row | Compound | HTR (count/30 min)
8 | CCCCc1cc(OC)c(CC(C)N)cc1OC (stereo not shown) [DOBU, 4-butyl-2,5-dimethoxyamphetamine] | 12.7 ± 1.3 count
9 | COc1cc(CC(C)N)c(OC)cc1C (stereo not shown) [DOM, 4-methyl-2,5-dimethoxyamphetamine] | 39.0 ± 3.3 count

Same assay, conditions: 1 mg/kg s.c.; mean ± SEM

Row | Compound | HTR (count/30 min)
10 | CCCCc1cc(OC)c(CC(C)N)cc1OC (stereo not shown) [DOBU, 4-butyl-2,5-dimethoxyamphetamine] | 40.2 ± 2.9 count
11 | COc1cc(CC(C)N)c(OC)cc1C (stereo not shown) [DOM, 4-methyl-2,5-dimethoxyamphetamine] | 90.0 ± 4.4 count

Same assay, conditions: 3 mg/kg s.c.; mean ± SEM

Row | Compound | HTR (count/30 min)
12 | CCCCc1cc(OC)c(CC(C)N)cc1OC (stereo not shown) [DOBU, 4-butyl-2,5-dimethoxyamphetamine] | 78.7 ± 6.2 count
13 | COc1cc(CC(C)N)c(OC)cc1C (stereo not shown) [DOM, 4-methyl-2,5-dimethoxyamphetamine] | 119.2 ± 9.7 count

Same assay, conditions: 10 mg/kg s.c.; mean ± SEM

Row | Compound | HTR (count/30 min)
14 | CCCCc1cc(OC)c(CC(C)N)cc1OC (stereo not shown) [DOBU, 4-butyl-2,5-dimethoxyamphetamine] | 69.3 ± 4.7 count
15 | COc1cc(CC(C)N)c(OC)cc1C (stereo not shown) [DOM, 4-methyl-2,5-dimethoxyamphetamine] | 88.0 ± 18.1 count

Same assay, conditions: 30 mg/kg s.c.; mean ± SEM

Row | Compound | HTR (count/30 min)
16 | CCCCc1cc(OC)c(CC(C)N)cc1OC (stereo not shown) [DOBU, 4-butyl-2,5-dimethoxyamphetamine] | 17.5 ± 4.5 count
17 | COc1cc(CC(C)N)c(OC)cc1C (stereo not shown) [DOM, 4-methyl-2,5-dimethoxyamphetamine] | 13.7 ± 3.9 count

Same assay, conditions: Mus musculus, sc, 0.5 h, read-out: HTR in mice ED50 (95% CI); s.c., 30 min session, ascending phase of dose-response curve

Row | Compound | ED50
18 | CCCCc1cc(OC)c(CC(C)N)cc1OC (stereo not shown) [DOBU, 4-butyl-2,5-dimethoxyamphetamine] | 1.29 mg/kg
19 | COc1cc(CC(C)N)c(OC)cc1C (stereo not shown) [DOM, 4-methyl-2,5-dimethoxyamphetamine] | 0.66 mg/kg

Same assay, conditions: mouse, in vivo

Row | Compound | Fold higher total HTR counts of DOM vs DOAM
20 | COc1cc(CC(C)N)c(OC)cc1C (stereo not shown) [DOM, 4-methyl-2,5-dimethoxyamphetamine] | 2.6 fold

Same assay, conditions: s.c., 30 min session

Row | Compound | HTR in mice Emax | HTR in mice Maximum rate | Peak HTR rate | Time of peak HTR rate post drug administration
21 | CCCCc1cc(OC)c(CC(C)N)cc1OC (stereo not shown) [DOBU, 4-butyl-2,5-dimethoxyamphetamine] | 79 total HTR count | 16 HTR count/5 min | – | –
22 | COc1cc(CC(C)N)c(OC)cc1C (stereo not shown) [DOM, 4-methyl-2,5-dimethoxyamphetamine] | 119 total HTR count | 24 HTR count/5 min | 24 events/5 min | 5 to 10 min

These molecules were tested on C57BL/6 J mice (assay: Body temperature change in mice (dose-response sessions)). Settings: 0.03 mg/kg s.c.; pre to post 30-min session; mean ± SEM.
Type: in vivo, mouse
Procedure: as §1, §2, §3, §4

Row | Compound | ΔTemperature
23 | CCCCc1cc(OC)c(CC(C)N)cc1OC (stereo not shown) [DOBU, 4-butyl-2,5-dimethoxyamphetamine] | -0.1 ± 0.1 °C
24 | COc1cc(CC(C)N)c(OC)cc1C (stereo not shown) [DOM, 4-methyl-2,5-dimethoxyamphetamine] | -0.1 ± 0.1 °C

Same assay, conditions: 0.1 mg/kg s.c.; pre to post 30-min session; mean ± SEM

Row | Compound | ΔTemperature
25 | CCCCc1cc(OC)c(CC(C)N)cc1OC (stereo not shown) [DOBU, 4-butyl-2,5-dimethoxyamphetamine] | -0.1 ± 0.2 °C
26 | COc1cc(CC(C)N)c(OC)cc1C (stereo not shown) [DOM, 4-methyl-2,5-dimethoxyamphetamine] | 0.0 ± 0.1 °C

Same assay, conditions: 0.3 mg/kg s.c.; pre to post 30-min session; mean ± SEM

Row | Compound | ΔTemperature
27 | CCCCc1cc(OC)c(CC(C)N)cc1OC (stereo not shown) [DOBU, 4-butyl-2,5-dimethoxyamphetamine] | 0.1 ± 0.1 °C
28 | COc1cc(CC(C)N)c(OC)cc1C (stereo not shown) [DOM, 4-methyl-2,5-dimethoxyamphetamine] | -0.1 ± 0.1 °C

Same assay, conditions: 1 mg/kg s.c.; pre to post 30-min session; mean ± SEM

Row | Compound | ΔTemperature
29 | CCCCc1cc(OC)c(CC(C)N)cc1OC (stereo not shown) [DOBU, 4-butyl-2,5-dimethoxyamphetamine] | -0.4 ± 0.1 °C
30 | COc1cc(CC(C)N)c(OC)cc1C (stereo not shown) [DOM, 4-methyl-2,5-dimethoxyamphetamine] | 0.1 ± 0.1 °C

Same assay, conditions: 3 mg/kg s.c.; pre to post 30-min session; mean ± SEM

Row | Compound | ΔTemperature
31 | CCCCc1cc(OC)c(CC(C)N)cc1OC (stereo not shown) [DOBU, 4-butyl-2,5-dimethoxyamphetamine] | -0.3 ± 0.2 °C
32 | COc1cc(CC(C)N)c(OC)cc1C (stereo not shown) [DOM, 4-methyl-2,5-dimethoxyamphetamine] | -0.2 ± 0.1 °C

Same assay, conditions: 10 mg/kg s.c.; pre to post 30-min session; mean ± SEM

Row | Compound | ΔTemperature
33 | CCCCc1cc(OC)c(CC(C)N)cc1OC (stereo not shown) [DOBU, 4-butyl-2,5-dimethoxyamphetamine] | -1.7 ± 0.6 °C
34 | COc1cc(CC(C)N)c(OC)cc1C (stereo not shown) [DOM, 4-methyl-2,5-dimethoxyamphetamine] | -2.2 ± 0.8 °C

Same assay, conditions: 30 mg/kg s.c.; pre to post 30-min session; mean ± SEM

Row | Compound | ΔTemperature
35 | CCCCc1cc(OC)c(CC(C)N)cc1OC (stereo not shown) [DOBU, 4-butyl-2,5-dimethoxyamphetamine] | -5.5 ± 0.4 °C
36 | COc1cc(CC(C)N)c(OC)cc1C (stereo not shown) [DOM, 4-methyl-2,5-dimethoxyamphetamine] | -6.5 ± 0.2 °C
